Laboratory results as given in US12678515B2, “Lipids and lipid nanoparticle formulations for delivery of nucleic acids” (Acuitas Therapeutics, Inc., priority 2015, dated 2026).

System: luciferase expression in the liver
Assay: In vivo luciferase mRNA expression rodent model (lipid nanoparticle formulations of cationic lipids)
Design: species or system mice
Settings: luciferase expression in liver 4 hours after tail vein injection; LNP 50% cationic lipid/10% DSPC/38.5% cholesterol/1.5% PEG-DMA; MC3 activity=1
Description: Cationic lipid (MC3), DSPC, cholesterol and PEG-lipid were solubilized in ethanol at a molar ratio of 50:10:38.5:1.5. Lipid nanoparticles (LNP) were prepared at a total lipid to mRNA weight ratio of approximately 10:1 to 30:1. Briefly, the mRNA was diluted to 0.2 mg/mL in 10 to 50 mM citrate buffer, pH 4. Syringe pumps were used to mix the ethanolic lipid solution with the mRNA aqueous solution at a ratio of about 1:5 to 1:3 (vol/vol) with total flow rates above 15 mL/min. The ethanol was then removed and the external buffer replaced with PBS by dialysis. Finally, the lipid nanoparticles were filtered through a 0.2 μm pore sterile filter. Lipid nanoparticle particle size was approximately 55-95 nm diameter, and in some instances approximately 70-90 nm diameter as determined by quasi-elastic light scattering using a Malvern Zetasizer Nano ZS (Malvern, UK) or by using a Nicomp 370 submicron particle sizer (Santa Barbara, CA).
Studies were performed in 6-8 week old female C57BL/6 mice (Charles River) 8-10 week old CD-1 (Harlan) mice (Charles River) according to guidelines established by an institutional animal care committee (ACC) and the Canadian Council on Animal Care (CCAC). Varying doses of mRNA-lipid nanoparticle were systemically administered by tail vein injection and animals euthanized at specific time points (1, 2, 4, 8 and 24 hrs) post-administration. Liver and spleen were collected in pre-weighed tubes, weights determined, immediately snap frozen in liquid nitrogen and stored at −80° C. until processing for analysis.
For liver, approximately 50 mg was dissected for analyses in a 2 mL FastPrep tubes (MP Biomedicals, Solon OH). ¼″ ceramic sphere (MP Biomedicals) was added to each tube and 500 μL of Glo Lysis Buffer—GLB (Promega, Madison WI) equilibrated to room temperature was added to liver tissue. Liver tissues were homogenized with the FastPrep24 instrument (MP Biomedicals) at 2×6.0 m/s for 15 seconds. Homogenate was incubated at room temperature for 5 minutes prior to a 1:4 dilution in GLB and assessed using SteadyGlo Luciferase assay system (Promega). Specifically, 50 μL of diluted tissue homogenate was reacted with 50 μL of SteadyGlo substrate, shaken for 10 seconds followed by 5 minute incubation and then quantitated using a CentroXS^3 LB 960 luminometer (Berthold Technologies, Germany). The amount of protein assayed was determined by using the BCA protein assay kit (Pierce, Rockford IL). Relative luminescence units (RLU) were then normalized to total μg protein assayed. To convert RLU to ng luciferase a standard curve was generated with QuantiLum Recombinant Luciferase (Promega). Based on the data provided in FIG. 1, the four-hour time point was chosen for efficacy evaluation of the lipid formulations (see Example 3). […]

SMILES	Activity Relative to MC3
CCCCCCCCC(CCCCCC)C(=O)OCCCCCCCCCC(CCCCCCCCCOC(=O)C(CCCCCC)CCCCCCCC)OC(=O)CCCN(C)C (stereo not shown) [Compound 1, 10-{[4′-(dimethylamino)butanoyl]oxy}-19-[(2-hexyldecanoyl)oxy]nonadecyl 2-hexyldecanoate]	~2
CCCCCCCCC(CCCCCC)COC(=O)CCCCCCCCCCCC(CCCCCCCCCCCC(=O)OCC(CCCCCC)CCCCCCCC)OC(=O)CCCN(C)C (stereo not shown) [Compound 2, 1,25-di-(2′-hexyldecyl)13-{[4-(dimethylamino)butanoyl]oxy}pentacosanedioate]	~0.75
CCCCCCCCC(CCCCCC)C(=O)OCCCCCCCCCC(CCCCCCCCCOC(=O)C(CCCCCC)CCCCCCCC)OC(=O)CCCCN(C)C (stereo not shown) [Compound 3, 10-{[5-(dimethylamino)pentanoyl]oxy}-19-[(2-hexyldecanoyl)oxy]nonadecyl 2-hexyldecanoate]	~8
CCCCC/C=C\C/C=C\CCCCCCCCC(CCCCCCCC/C=C\C/C=C\CCCCC)OC(=O)CCCN(C)C [MC3, reference compound]	1
